From patent US8999365B2, “Prevention of bacterial contamination” (priority 2005, dated 2015)

What was measured:
[1] = tested on: Staphylococcus epidermidis; assay: Growth of adherent bacteria on treated surfaces in Tryptic Yeast Extract medium; assay type: cell-based; details: for Growth after 1 day / Growth after 5 days: cell culture IV, Tryptic Yeast Extract medium, 37° C.
Method: The ability of bacteria to grow on coated and non-coated surfaces was determined by adding 4 mL of Tryptic Yeast Extract medium to each well and incubating at 37° C.

[2] = Physicochemical properties of delmopinol (pKa, solubility of base)
[3] = tested on: Staphylococcus epidermidis; assay: Adhesion assay: total attached cells on delmopinol-coated discs; details: mean of Exp. I-III
Method: The different materials were obtained as discs with an approximate diameter of 30 mm and a thickness of 1 mm. These discs were then mounted in the bottom of Petri dishes
(§1) Procedure A: The test surfaces were treated with 2 mL of the 2% aqueous solution of delmopinol HCl and left unstirred for 15 minutes at room temperature. All delmopinol solution was removed with a pipette. The wells were then thoroughly rinsed three times with 4 mL of a potassium phosphate buffer, 10 mM, pH 7.2. […] Procedure B: The test surfaces were treated with 2 mL of the 2% aqueous solution of delmopinol HCl and left overnight to dry. Microorganisms
(§2) A fresh bacterial strain of Staphylococcus epidermidis was isolated from skin and stored in milk powder at −80° C. The day before experimental use, bacteria were transferred to blood agar and incubated in an atmosphere of 95% H2 and 5% CO2 at 37° C. overnight. Colony-forming units were collected from the blood agar and suspended in 10 mM potassium phosphate buffer, pH 7.2, to an optical density at 600 nm of 0.4, corresponding to approximately 10^8 cells/mL.
Four mL of the bacterial suspension was added on top of coated and non-coated test surfaces mounted in Petri dishes. […] A 10 μL-aliquot of the mixture was added to the surface and analysed after 10 min incubation in the dark. Microscopic images of adherent cells were analysed from 10 fields of each disc. […]

[4] = tested on: Staphylococcus epidermidis
Method: as §1, §2
The bacterial viability of the bacterial suspension, indicated by the vitality percentages, was assessed by fluorescence microscopy using the Live/Dead Bacterial Viability method Molecular Probes, Inc. Eugene, Oreg., USA) according to the instructions of the manufacturer. Thus, SYTO 9 (1.5 μL) and propidium iodide (1.5 μL) were mixed with 1 mL of 10 mM phosphate buffer, pH 7.2. Aliquots of 10 μL were added to 10 μL cell suspension and analysed at 1000× for green/LIVE and red/DEAD cells in the fluorescence microscope (Leitz Aristoplan microscope equipped with a halogen lamp and a 470-490 nm excitation filter).
Four mL of the bacterial suspension was added on top of coated and non-coated test surfaces mounted in Petri dishes. The cells were allowed to adhere for 60 min at 37° C. Non-adherent cells were removed by rinsing the surfaces three times with 4 mL of the buffer solution. […] A 10 μL-aliquot of the mixture was added to the surface and analysed after 10 min incubation in the dark. Microscopic images of adherent cells were analysed from 10 fields of each disc. […]

[5] = coated versus non-coated surfaces

CCCC(CCC)CCCC1COCCN1CCO (stereo not shown) [delmopinol, 3-(4-propyl-heptyl)-4-(2-hydroxyethyl) morpholine]
growth of surface-associated bacteria (conclusion) [1, 5]: significantly inhibited growth
Growth after 1 day ([1]; stainless steel coated): no
Growth after 5 days ([1]; stainless steel coated): no
Growth after 1 day ([1]; titanium coated): no
Growth after 5 days ([1]; titanium coated): no
pKa [2]: 7.1
number of attached cells per mm^2, Mean ([3]; stainless steel coated with 2% delmopinol HCl): 418 cells per mm^2
number of attached cells per mm^2, Mean ([3]; titanium coated with 2% delmopinol HCl): 207 cells per mm^2
percentage viable cells, Mean [4]: 9 percentage
viability of adherent cells on delmopinol-coated surfaces (conclusion) [4, 5]: significant reduction
